Several values for one entry are separate records, joined by “and”; a condition that tells them apart may be missing. Equal values may be shown once. Toxic doses and inconclusive results are not listed.
Tested on: BDF1 mice, L1210/MTX-resistant leukemia ip, survival T/C
Assay: NCI In Vivo Anticancer Drug Screen. Data for tumor model L1210 Leukemia resistant to Methotrexate; NSC 740 (intraperitoneal) in B6D2F1 (BDF1) mice
Conditions: endpoint: mean survival time, higher = longer survival
Protocol: The antitumor activity of compounds was measured in mice bearing transplantable tumors. Survival or tumor size were measured and the results are expressed as the measurement made in the treated group (T) divided by the measurement made in the vehicle treated control group (C). The tumor model used in this assay is L1210 Leukemia resistant to Methotrexate; NSC 740 (intraperitoneal) in B6D2F1 (BDF1) mice

[1] = dose: 8.0 mg/kg/injection, schedule: Q01DX010 (ip), vehicle: other
[2] = dose: 16.0 mg/kg/injection, schedule: Q01DX010 (ip), vehicle: other
[3] = dose: 32.0 mg/kg/injection, schedule: Q01DX010 (ip), vehicle: other
[4] = dose: 8.0 mg/kg/injection, schedule: Q01DX010 (ip), vehicle: saline
[5] = dose: 16.0 mg/kg/injection, schedule: Q01DX010 (ip), vehicle: saline
[6] = dose: 32.0 mg/kg/injection, schedule: Q01DX010 (ip), vehicle: saline

## O=C(Nc1ccc(C2=NCCN2)cc1)c1ccc(C(=O)Nc2ccc(C3=NCCN3)cc2)cc1
dose: 4.0 mg/kg/injection, schedule: Q01DX010 (ip), vehicle: other
  T/C: 194 % of control and 204 % of control
[1]
  T/C: 244 % of control and 279 % of control
dose: 10.0 mg/kg/injection, schedule: Q01DX Z (ip), vehicle: methylcellulose (MC)
  T/C: 124 % of control and 105 % of control
[2]
  T/C: 218 % of control and 219 % of control
dose: 20.0 mg/kg/injection, schedule: Q01DX Z (ip), vehicle: methylcellulose (MC)
  T/C: 120 % of control and 106 % of control
[3]
  T/C: 231 % of control and 239 % of control
dose: 40.0 mg/kg/injection, schedule: Q01DX Z (ip), vehicle: methylcellulose (MC)
  T/C: 117 % of control
dose: 64.0 mg/kg/injection, schedule: Q01DX010 (ip), vehicle: other
  T/C: 222 % of control and 242 % of control

## Nc1nc(=S)c2[nH]cnc2[nH]1
dose: 0.75 mg/kg/injection, schedule: Q01DX Z (ip), vehicle: carboxymethylcellulose (CMC)
  T/C: 97 % of control
dose: 1.25 mg/kg/injection, schedule: Q01DX010 (ip), vehicle: saline
  T/C: 99 % of control and 106 % of control
dose: 1.5 mg/kg/injection, schedule: Q01DX Z (ip), vehicle: carboxymethylcellulose (CMC)
  T/C: 88 % of control
dose: 2.5 mg/kg/injection, schedule: Q01DX010 (ip), vehicle: saline
  T/C: 90 % of control
dose: 2.5 mg/kg/injection, schedule: Q01DX Z (ip), vehicle: carboxymethylcellulose (CMC)
  T/C: 102 % of control
dose: 5.0 mg/kg/injection, schedule: Q01DX010 (ip), vehicle: saline
  T/C: 92 % of control
dose: 5.0 mg/kg/injection, schedule: Q01DX Z (ip), vehicle: carboxymethylcellulose (CMC)
  T/C: 107 % of control
dose: 7.5 mg/kg/injection, schedule: Q01DX Z (ip), vehicle: carboxymethylcellulose (CMC)
  T/C: 108 % of control
dose: 10.0 mg/kg/injection, schedule: Q01DX Z (ip), vehicle: carboxymethylcellulose (CMC)
  T/C: 98 % of control
dose: 15.0 mg/kg/injection, schedule: Q01DX Z (ip), vehicle: carboxymethylcellulose (CMC)
  T/C: 88 % of control

## Nc1nc2n[nH]nc2c(=O)[nH]1
dose: 25.0 mg/kg/injection, schedule: Q01DX010 (ip), vehicle: alkali diluted with saline
  T/C: 92 % of control
dose: 25.0 mg/kg/injection, schedule: Q01DX Z (ip), vehicle: water
  T/C: 120 % of control
dose: 50.0 mg/kg/injection, schedule: Q01DX010 (ip), vehicle: alkali diluted with saline
  T/C: 94 % of control and 99 % of control
dose: 50.0 mg/kg/injection, schedule: Q01DX Z (ip), vehicle: other
  T/C: 106 % of control
dose: 50.0 mg/kg/injection, schedule: Q01DX Z (ip), vehicle: water
  T/C: 120 % of control
dose: 100.0 mg/kg/injection, schedule: Q01DX010 (ip), vehicle: alkali diluted with saline
  T/C: 90 % of control and 91 % of control
dose: 100.0 mg/kg/injection, schedule: Q01DX Z (ip), vehicle: other
  T/C: 101 % of control
dose: 200.0 mg/kg/injection, schedule: Q01DX010 (ip), vehicle: alkali diluted with saline
  T/C: 88 % of control and 98 % of control
dose: 200.0 mg/kg/injection, schedule: Q01DX Z (ip), vehicle: water
  T/C: 107 % of control
dose: 350.0 mg/kg/injection, schedule: Q01DX Z (ip), vehicle: water
  T/C: 94 % of control

## Cn1c(O)c(N=NC(N)=S)c2ccccc21
dose: 50.0 mg/kg/injection, schedule: Q01DX Z (ip), vehicle: carboxymethylcellulose (CMC)
  T/C: 96 % of control
dose: 100.0 mg/kg/injection, schedule: Q01DX Z (ip), vehicle: carboxymethylcellulose (CMC)
  T/C: 86 % of control

## C[C@]12CCC(=O)C=C1CC[C@@H]1[C@@H]2C(=O)C[C@@]2(C)[C@H]1CC[C@]2(O)C(=O)CO
dose: 63.0 mg/kg/injection, schedule: Q01DX Z (sc), vehicle: steriod suspending solution
  T/C: 101 % of control and 106 % of control
dose: 100.0 mg/kg/injection, schedule: Q01DX Z (sc), vehicle: steriod suspending solution
  T/C: 89 % of control
dose: 125.0 mg/kg/injection, schedule: Q01DX Z (sc), vehicle: steriod suspending solution
  T/C: 98 % of control and 102 % of control

## c1ccc(CNc2ncnc3[nH]ncc23)cc1
[4]
  T/C: 94 % of control and 103 % of control
[5]
  T/C: 96 % of control and 100 % of control
[6]
  T/C: 91 % of control

## CCCCNc1ncnc2c1cnn2C
dose: 31.25 mg/kg/injection, schedule: Q01DX010 (ip), vehicle: saline
  T/C: 98 % of control and 102 % of control
dose: 62.5 mg/kg/injection, schedule: Q01DX010 (ip), vehicle: saline
  T/C: 90 % of control

## Nc1nc(N)c2nc(CNc3ccc(C(=O)NC(CCC(=O)O)C(=O)O)cc3)cnc2n1 (configuration not stated)
dose: 0.05 mg/kg/injection, schedule: Q01DX010 (ip), vehicle: other
  T/C: 90 % of control
dose: 0.1 mg/kg/injection, schedule: Q01DX010 (ip), vehicle: other
  T/C: 102 % of control and 103 % of control
dose: 0.2 mg/kg/injection, schedule: Q01DX010 (ip), vehicle: other
  T/C: 92 % of control and 104 % of control
dose: 0.4 mg/kg/injection, schedule: Q01DX010 (ip), vehicle: other
  T/C: 89 % of control

## O=C(Nc1ccc(C2=NCCN2)cc1)c1cccc(C(=O)Nc2ccc(C3=NCCN3)cc2)c1
[4]
  T/C: 177 % of control and 209 % of control
dose: 12.5 mg/kg/injection, schedule: Q01DX Z (ip), vehicle: methylcellulose (MC)
  T/C: 122 % of control
[5]
  T/C: 211 % of control and 247 % of control
[6]
  T/C: 225 % of control and 256 % of control
dose: 50.0 mg/kg/injection, schedule: Q01DX Z (ip), vehicle: methylcellulose (MC)
  T/C: 95 % of control
dose: 64.0 mg/kg/injection, schedule: Q01DX010 (ip), vehicle: saline
  T/C: 235 % of control and 250 % of control

## C[C@]12C=CC(=O)C=C1CC[C@@H]1[C@@H]2[C@@H](O)C[C@@]2(C)[C@H]1CC[C@]2(O)C(=O)CO
dose: 12.5 mg/kg/injection, schedule: Q01DX010 (sc), vehicle: steriod suspending solution
  T/C: 88 % of control
dose: 25.0 mg/kg/injection, schedule: Q01DX010 (sc), vehicle: steriod suspending solution
  T/C: 99 % of control
dose: 50.0 mg/kg/injection, schedule: Q01DX010 (sc), vehicle: steriod suspending solution
  T/C: 86 % of control
dose: 100.0 mg/kg/injection, schedule: Q01DX010 (sc), vehicle: steriod suspending solution
  T/C: 90 % of control

## O=C(Nc1ccc(C2=NCCN2)cc1)c1ccc(C(=O)Nc2ccc(C3=NCCN3)cc2)c(Cl)c1
dose: 1.9 mg/kg/injection, schedule: Q01DX Z (ip), vehicle: other
  T/C: 88 % of control
dose: 2.0 mg/kg/injection, schedule: Q01DX010 (ip), vehicle: other
  T/C: 122 % of control
dose: 3.8 mg/kg/injection, schedule: Q01DX Z (ip), vehicle: other
  T/C: 94 % of control
dose: 7.5 mg/kg/injection, schedule: Q01DX Z (ip), vehicle: other
  T/C: 97 % of control
[1]
  T/C: 170 % of control
dose: 8.5 mg/kg/injection, schedule: Q02DX010 (ip), vehicle: carboxymethylcellulose (CMC)
  T/C: 123 % of control
dose: 10.0 mg/kg/injection, schedule: Q01DX Z (ip), vehicle: saline
  T/C: 118 % of control and 110 % of control
dose: 15.0 mg/kg/injection, schedule: Q01DX Z (ip), vehicle: other
  T/C: 97 % of control
[2]
  T/C: 177 % of control and 221 % of control
dose: 20.0 mg/kg/injection, schedule: Q01DX Z (ip), vehicle: other
  T/C: 124 % of control
dose: 30.0 mg/kg/injection, schedule: Q01DX Z (ip), vehicle: other
  T/C: 101 % of control
dose: 30.0 mg/kg/injection, schedule: Q02DX010 (ip), vehicle: carboxymethylcellulose (CMC)
  T/C: 192 % of control
[3]
  T/C: 250 % of control and 274 % of control
dose: 40.0 mg/kg/injection, schedule: Q01DX Z (ip), vehicle: other
  T/C: 95 % of control
dose: 45.0 mg/kg/injection, schedule: Q02DX010 (ip), vehicle: carboxymethylcellulose (CMC)
  T/C: 190 % of control
dose: 80.0 mg/kg/injection, schedule: Q01DX Z (ip), vehicle: other
  T/C: 91 % of control
dose: 80.0 mg/kg/injection, schedule: Q01DX Z (ip), vehicle: saline
  T/C: 88 % of control

## CS(=O)(=O)OCC(O)C(O)COS(C)(=O)=O (configuration not stated)
dose: 18.8 mg/kg/injection, schedule: Q01DX Z (ip), vehicle: saline
  T/C: 88 % of control
dose: 37.5 mg/kg/injection, schedule: Q01DX Z (ip), vehicle: saline
  T/C: 90 % of control
dose: 75.0 mg/kg/injection, schedule: Q01DX Z (ip), vehicle: saline
  T/C: 101 % of control

## C[N+](C)(C)c1ncnc2nc[nH]c12
dose: 15.0 mg/kg/injection, schedule: Q01DX010 (ip), vehicle: saline
  T/C: 94 % of control

## CC[C@]1(O)C[C@H]2CN(CCc3c([nH]c4ccccc34)[C@@](C(=O)OC)(c3cc4c(cc3OC)N(C=O)[C@H]3[C@@](O)(C(=O)OC)[C@H](OC(C)=O)[C@]5(CC)C=CCN6CC[C@]43[C@@H]65)C2)C1
dose: 0.03 mg/kg/injection, schedule: Q01DX010 (ip), vehicle: saline
  T/C: 94 % of control
dose: 0.06 mg/kg/injection, schedule: Q01DX010 (ip), vehicle: saline
  T/C: 106 % of control
dose: 0.12 mg/kg/injection, schedule: Q01DX010 (ip), vehicle: saline
  T/C: 95 % of control
dose: 0.25 mg/kg/injection, schedule: Q01DX010 (ip), vehicle: saline
  T/C: 89 % of control

Reference: PubChem BioAssay AID284 (DTP/NCI, 2004)
